According to ChEMBL document CHEMBL5036334, “Balanced dual acting compounds targeting aromatase and estrogen receptor α as an emerging therapeutic opportunity to counteract estrogen responsive breast cancer” (Eur J Med Chem, 2021):
Blank lines part the entries; values can stand above or below the molecule they belong to.

Columns and labels:
MCF-10A = assay: Antiproliferative activity against human MCF-10A cells assessed as reduction in cell viability after 72 hrs by cell counter method; format: functional, cell-based
Aromatase = biological target: T1, Aromatase (Homo sapiens, UniProt P11511); assay: Inhibition of human aromatase assessed as reduction in fluorescence intensity preincubated with NADPH regenerating system for 10 mins followed by substrate addition incubated for 60 mins by fluorescence based microplate reader analysis
T1 sequence (P11511 whole entry): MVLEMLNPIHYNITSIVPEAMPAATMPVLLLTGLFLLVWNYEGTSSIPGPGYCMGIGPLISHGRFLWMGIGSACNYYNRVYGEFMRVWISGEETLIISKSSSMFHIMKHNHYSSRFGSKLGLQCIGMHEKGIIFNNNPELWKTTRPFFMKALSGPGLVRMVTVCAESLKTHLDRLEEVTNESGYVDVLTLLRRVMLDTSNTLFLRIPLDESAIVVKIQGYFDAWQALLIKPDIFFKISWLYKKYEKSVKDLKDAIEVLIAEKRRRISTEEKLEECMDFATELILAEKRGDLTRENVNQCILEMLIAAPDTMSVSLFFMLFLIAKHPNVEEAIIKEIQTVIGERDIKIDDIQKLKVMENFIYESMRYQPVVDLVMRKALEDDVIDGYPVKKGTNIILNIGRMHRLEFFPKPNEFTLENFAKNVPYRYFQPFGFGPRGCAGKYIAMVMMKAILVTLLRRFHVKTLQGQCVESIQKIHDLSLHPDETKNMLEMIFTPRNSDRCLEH

MCF7 = assay: Antiproliferative activity against human MCF7 cells assessed as reduction in cell viability after 72 hrs by cell counter method; format: functional, cell-based; conditions: MCF7, 72 h
Estrogen receptor = biological target: T2, Estrogen receptor (Homo sapiens, UniProt P03372); assay: Binding affinity to human ERalpha measured after 2 hrs by fluorescence polarization plate reader
T2 sequence (P03372 whole entry): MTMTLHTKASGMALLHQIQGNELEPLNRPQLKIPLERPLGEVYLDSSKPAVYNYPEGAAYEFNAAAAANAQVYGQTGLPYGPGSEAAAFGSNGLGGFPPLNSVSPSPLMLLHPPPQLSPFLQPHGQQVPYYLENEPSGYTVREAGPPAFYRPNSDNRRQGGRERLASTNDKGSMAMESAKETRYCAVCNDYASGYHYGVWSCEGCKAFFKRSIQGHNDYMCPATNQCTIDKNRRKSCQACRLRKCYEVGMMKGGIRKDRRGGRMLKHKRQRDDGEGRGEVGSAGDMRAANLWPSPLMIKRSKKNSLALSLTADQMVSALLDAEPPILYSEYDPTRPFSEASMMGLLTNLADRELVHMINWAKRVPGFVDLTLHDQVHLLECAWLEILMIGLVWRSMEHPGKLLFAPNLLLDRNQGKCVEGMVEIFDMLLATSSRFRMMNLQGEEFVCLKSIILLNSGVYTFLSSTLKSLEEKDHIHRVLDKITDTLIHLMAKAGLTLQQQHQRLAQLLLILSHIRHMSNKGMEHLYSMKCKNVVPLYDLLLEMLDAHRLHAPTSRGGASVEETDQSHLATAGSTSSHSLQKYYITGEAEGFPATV

SMILES: CC(Cc1cccnc1)=C(c1ccc(O)cc1)c1ccc(O)cc1
IC50 (MCF-10A): 58.7 µM | IC50 (Aromatase): 861 nM | IC50 (MCF7): 41.2 µM | IC50 (Estrogen receptor): 1770 nM

SMILES: CCC(Cn1ccnc1)=C(c1ccc(O)cc1)c1ccc(O)cc1
IC50 (MCF-10A): 34.7 µM | IC50 (Aromatase): 35 nM | IC50 (MCF7): 24.3 µM | IC50 (Estrogen receptor): 1800 nM

SMILES: CCC(CCc1c[nH]cn1)=C(c1ccc(O)cc1)c1ccc(O)cc1
IC50 (MCF-10A): > 100 µM | IC50 (Aromatase): 52 nM | IC50 (MCF7): 37.1 µM | IC50 (Estrogen receptor): 197 nM

SMILES: CCC(=C(c1ccc(O)cc1)c1ccc(O)cc1)c1c[nH]cn1
IC50 (MCF-10A): > 100 µM | IC50 (Aromatase): 952 nM | IC50 (MCF7): 60 µM | IC50 (Estrogen receptor): 1070 nM

SMILES: CC(=C(c1ccc(O)cc1)c1ccc(O)cc1)c1cccnc1
IC50 (MCF-10A): 41.7 µM | IC50 (Aromatase): > 10000 nM | IC50 (MCF7): 5.3 µM | IC50 (Estrogen receptor): 76 nM

SMILES: CCC(Cc1cccnc1)=C(c1ccc(O)cc1)c1ccc(O)cc1
IC50 (MCF-10A): > 100 µM | IC50 (Aromatase): 23 nM | IC50 (MCF7): 27.6 µM | IC50 (Estrogen receptor): 19 nM

SMILES: CC(CCc1c[nH]cn1)=C(c1ccc(O)cc1)c1ccc(O)cc1
IC50 (MCF-10A): 50.4 µM | IC50 (Aromatase): 63 nM | IC50 (MCF7): 39.8 µM | IC50 (Estrogen receptor): 1740 nM

IC50 (Aromatase): 1250 nM | IC50 (Estrogen receptor): > 10000 nM
SMILES: CCC(=C(c1ccc(O)cc1)c1ccc(O)cc1)c1cccnc1
IC50 (MCF-10A): 17 µM | IC50 (MCF7): 10 µM

SMILES: CC(=C(c1ccc(O)cc1)c1ccc(O)cc1)c1c[nH]cn1
IC50 (MCF-10A): > 100 µM | IC50 (Aromatase): 596 nM | IC50 (MCF7): 58 µM | IC50 (Estrogen receptor): 223 nM

SMILES: CC(Cn1ccnc1)=C(c1ccc(O)cc1)c1ccc(O)cc1
IC50 (MCF-10A): 52.5 µM | IC50 (Aromatase): 1000 nM | IC50 (MCF7): 37 µM | IC50 (Estrogen receptor): 4950 nM

SMILES: CCC(CCc1cccnc1)=C(c1ccc(O)cc1)c1ccc(O)cc1
IC50 (MCF-10A): 20 µM | IC50 (Aromatase): 900 nM | IC50 (MCF7): 42.1 µM | IC50 (Estrogen receptor): 33 nM

SMILES: CC(CCc1cccnc1)=C(c1ccc(O)cc1)c1ccc(O)cc1
IC50 (MCF-10A): > 100 µM | IC50 (Aromatase): 3240 nM | IC50 (MCF7): > 100 µM | IC50 (Estrogen receptor): 313 nM

IC50 (Aromatase): > 10000 nM | IC50 (Estrogen receptor): 30 nM
SMILES: CC/C(=C(\c1ccc(O)cc1)c1ccc(OCCNC)cc1)c1ccccc1 [ENDOXIFEN]
IC50 (MCF-10A): > 10 µM | IC50 (MCF7): 0.1 µM

IC50 (Estrogen receptor): > 10000 nM
SMILES: N#Cc1ccc(C(c2ccc(C#N)cc2)n2cncn2)cc1 [LETROZOLE]
IC50 (MCF-10A): > 10 µM | IC50 (MCF7): 4.1 µM
